Results from patent US20100216779A1 (GLAXOSMITHKLINE LLC, priority 2007, published 2010).

How the values were obtained:
COLO205 (colon) = assay: Inhibition of cell proliferation, CellTiter-Glo, COLO205; type: cell-based; conditions: Homo sapiens, COLO 205, 72 h
Protocol: C. Inhibition of Cell Proliferation
Cell proliferation was measured by either CellTiter-Glo (measures cellular ATP level as a surrogate for total cell number) or by InCell analyzer (counts number of nuclei as a measure of cell number). For CellTiter-Glo assay, exponentially growing cell lines of different tumor origins, cultured in appropriate media containing 10% fetal bovine serum at 37° C. in a 5% CO2 incubator, were plated at low density (less than 2000 cells/well) in 96-well plates. […] Several wells were left untreated as a control. Seventy two hours post-treatment, cell numbers were determined using 50-100 ul per well of CellTiter-Glo (Promega #G7573). Plates were incubated at 37° C. for 30 minutes and the chemiluminescent signal was read on the Victor V or Envison 2100 reader. […]

[1] = target: T1, human IGF-1R (NIH-3T3 cells over expressing human IGF-1R) (Homo sapiens, UniProt P08069); assay: IGF-1R cellular autophosphorylation (DELFIA); type: cell-based; conditions: IGF-1 stimulated
T1 construct: expressed in transfected cells; host or cells: NIH-3T3 (mouse fibroblasts)
Protocol: D. IGF-1R and IR Cellular Autophosphorylation (DELFIA)
NIH-3T3 cells over expressing human IGF-1R or IR were plated in 96-well plates (10,000 cells/well) in culture media containing 10% fetal bovine serum and incubated at 37° C. in a 5% CO2 incubator. Twenty four hours post-plating, cells were treated with different concentrations of test compounds ranging from 30 uM to 1.5 nM. Two hours after compound addition, cells were stimulated with either human IGF-1 (30 ng/mL) or insulin (3 ug/mL) for 15 minutes. Cell lysates are analyzed for phosphorylated receptors using dissociation enhanced lanthanide fluor-immuno assay (DELFIA) with anti-IGF-1R (MAB391, R&D Systems, Minneapolis, Minn.) or anti-IR[…](sc-711, Santa Cruz Biotechnology, Santa Cruz, Calif.) capture antibody and europium-labeled anti-pTyr antibody (Eu-N1 PT66, Perkin Elmer, Waltham, Mass.) for detection. The fluorescence signal for cells treated with compounds was expressed as percent relative to 100% stimulation (IGF-1 or insulin stimulated signal). […]

T1 sequence (P08069 31-1367): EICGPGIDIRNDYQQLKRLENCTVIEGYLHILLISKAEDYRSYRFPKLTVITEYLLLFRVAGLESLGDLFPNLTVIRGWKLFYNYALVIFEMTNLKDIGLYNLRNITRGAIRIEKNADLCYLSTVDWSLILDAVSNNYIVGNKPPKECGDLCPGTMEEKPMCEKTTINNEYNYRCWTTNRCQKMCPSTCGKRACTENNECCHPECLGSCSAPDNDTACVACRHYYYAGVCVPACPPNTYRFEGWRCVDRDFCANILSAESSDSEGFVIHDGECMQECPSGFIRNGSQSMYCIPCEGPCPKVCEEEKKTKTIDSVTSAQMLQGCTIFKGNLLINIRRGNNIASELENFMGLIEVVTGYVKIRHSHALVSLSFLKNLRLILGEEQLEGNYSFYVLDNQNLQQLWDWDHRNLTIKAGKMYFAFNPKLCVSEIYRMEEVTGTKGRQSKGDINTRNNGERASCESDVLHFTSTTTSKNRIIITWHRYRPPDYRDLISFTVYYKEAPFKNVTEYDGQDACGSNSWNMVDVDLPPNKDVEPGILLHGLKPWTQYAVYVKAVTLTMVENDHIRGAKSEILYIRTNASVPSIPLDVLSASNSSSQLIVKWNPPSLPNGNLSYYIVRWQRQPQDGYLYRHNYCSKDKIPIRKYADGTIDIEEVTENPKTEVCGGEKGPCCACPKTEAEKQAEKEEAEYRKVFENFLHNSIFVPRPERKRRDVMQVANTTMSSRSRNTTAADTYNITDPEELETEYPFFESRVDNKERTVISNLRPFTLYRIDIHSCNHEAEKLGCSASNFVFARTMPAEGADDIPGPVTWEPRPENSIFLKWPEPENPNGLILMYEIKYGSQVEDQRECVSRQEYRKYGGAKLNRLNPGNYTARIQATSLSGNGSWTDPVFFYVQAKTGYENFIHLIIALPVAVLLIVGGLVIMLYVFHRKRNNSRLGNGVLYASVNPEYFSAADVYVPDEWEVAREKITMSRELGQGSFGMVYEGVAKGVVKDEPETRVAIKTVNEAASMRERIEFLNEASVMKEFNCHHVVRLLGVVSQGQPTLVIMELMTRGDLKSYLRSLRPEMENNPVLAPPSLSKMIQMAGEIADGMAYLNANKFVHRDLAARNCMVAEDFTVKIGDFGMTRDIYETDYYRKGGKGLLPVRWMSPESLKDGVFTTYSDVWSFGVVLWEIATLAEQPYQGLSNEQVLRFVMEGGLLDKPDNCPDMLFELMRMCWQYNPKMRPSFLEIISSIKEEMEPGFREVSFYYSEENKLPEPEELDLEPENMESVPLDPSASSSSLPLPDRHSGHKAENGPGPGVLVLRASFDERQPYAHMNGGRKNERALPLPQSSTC

SMILES | IC50 (COLO205 (colon)) [nM] | IC50 [1] [nM]
COc1cc(N2CCN(C(C)C)CC2)ccc1Nc1nccc(-c2c(-c3cccc(C(=O)Nc4c(F)cccc4F)c3)nc3ccccn23)n1 [Example 175, N-(2,6-difluorophenyl)-3-[3-(2-{[4-[4-(1-methylethyl)-1-piperazinyl]-2-(methyloxy)phenyl]amino}-4-pyrimidinyl)imidazo[1,2-a]pyridin-2-yl]benzamide] | 250 to 1000 | < 100
COc1cc(N2CCC(OC)CC2)ccc1Nc1nccc(-c2c(-c3cccc(C(=O)Nc4c(F)cccc4F)c3)nc3ccccn23)n1 [Example 125, N-(2,6-difluorophenyl)-3-{3-[2-({2-(methyloxy)-4-[4-(methyloxy)-1-piperidinyl]phenyl}-amino)-4-pyrimidinyl}imidazo[1,2-a]pyridin-2-yl]benzamide] | 250 to 1000 | < 100
COc1cc(CCN2CCCCC2)c(F)cc1Nc1nccc(-c2c(-c3cccc(C(=O)Nc4c(F)cc(F)cc4F)c3)nc3ccccn23)n1 [Example 129, 3-{3-[2-({5-fluoro-2-(methyloxy)-4-[2-(1-piperidinyl)ethyl]phenyl}amino)-4-pyrimidinyl]imidazo[1,2-a]pyridin-2-yl}-N-(2,4,6-trifluorophenyl)benzamide] | 250 to 1000 | 100 to 500
Cc1ccn2c(-c3ccnc(Nc4cccc(OCCN(C)C)c4)n3)c(-c3cccc(C(=O)Nc4c(F)cccc4F)c3)nc2c1 [Example 14, N-(2,6-difluorophenyl)-3-(3-{2-[(3-{[2-(dimethylamino)ethyl]oxy}phenyl)amino]-4-pyrimidinyl}-7-methylimidazo[1,2-a]pyridin-2-yl)benzamide] |  | > 500
COc1ccc(N2CCC(N3CCCCC3)CC2)cc1Nc1nccc(-c2c(-c3cccc(C(=O)Nc4c(F)cccc4F)c3)nc3ccccn23)n1 [Example 30, 3-[3-(2-{[5-(1,4′-bipiperidin-1′-yl)-2-(methyloxy)phenyl]amino}-4-pyrimidinyl)imidazo[1,2-a]pyridin-2-yl]-N-(2,6-difluorophenyl)benzamide] | 250 to 1000 | 100 to 500
COc1cc(CCN2CCOCC2)c(F)cc1Nc1nccc(-c2c(-c3ccc(OC)c(C(=O)Nc4c(F)cccc4F)c3)nc3ccccn23)n1 [Example 130, N-(2,6-difluorophenyl)-5-{3-[2-({5-fluoro-2-(methyloxy)-4-[2-(4-morpholinyl)ethyl]phenyl}-amino)-4-pyrimidinyl]imidazo[1,2-a]pyridin-2-yl}-2-(methyloxy)benzamide] | 250 to 1000 | 100 to 500
COc1cc(CCN2CCN(C)CC2)ccc1Nc1nccc(-c2c(-c3ccc(OC)c(C(=O)Nc4c(F)cccc4F)c3)nc3ccccn23)n1 [Example 131, N-(2,6-difluorophenyl)-2-(methyloxy)-5-{3-[2-({2-(methyloxy)-4-[2-(4-methyl-1-piperazinyl)ethyl]phenyl}amino)-4-pyrimidinyl]imidazo[1,2-a]pyridin-2-yl}benzamide] | < 250 | < 100
COc1cc(N2CCC(N(C)C)CC2)ccc1Nc1nccc(-c2c(-c3cccc(C(=O)Nc4c(F)cccc4F)c3)nc3ccccn23)n1 [Example 74, N-(2,6-difluorophenyl)-3-[3-(2-{[4-[4-(dimethylamino)-1-piperidinyl]-2-(methyloxy)phenyl]amino}-4-pyrimidinyl)imidazo[1,2-a]pyridin-2-yl]benzamide] | < 250 | < 100
COc1cc(-c2nnc(CN3CCCC3)o2)ccc1Nc1nccc(-c2c(-c3cccc(C(=O)Nc4c(F)cccc4F)c3)nc3ccccn23)n1 [Example 29, N-(2,6-difluorophenyl)-3-{3-[2-({2-(methyloxy)-4-[5-(1-pyrrolidinylmethyl)-1,3,4-oxadiazol-2-yl]phenyl}amino)-4-pyrimidinyl]imidazo[1,2-a]pyridin-2-yl}benzamide] |  | 100 to 500
CN(C)CCOc1cccc(Nc2nccc(-c3c(-c4cccc(C(=O)Nc5cc(C(F)(F)F)ccc5F)c4)nc4ccccn34)n2)c1 [Example 10, 3-(3-{2-[(3-{[2-(dimethylamino)ethyl]oxy}phenyl)amino]-4-pyrimidinyl}imidazo[1,2-a]pyridin-2-yl)-N-[2-fluoro-5-(trifluoromethyl)phenyl]benzamide] |  | 100 to 500
COc1cc(CCN2CCN(C)CC2)ccc1Nc1nccc(-c2c(-c3cccc(C(=O)Nc4c(F)cccc4F)c3)nc3ccccn23)n1 [Example 132, N-(2,6-difluorophenyl)-3-{3-[2-({2-(methyloxy)-4-[2-(4-methyl-1-piperazinyl)ethyl]phenyl}amino)-4-pyrimidinyl]imidazo[1,2-a]pyridin-2-yl}benzamide] | 250 to 1000 | < 100
CN(C)CCOc1cccc(Nc2nccc(-c3c(-c4cccc(C(=O)Nc5c(F)cccc5F)c4)nc4ccccn34)n2)c1 [Example 20, N-(2,6-difluorophenyl)-3-(3-{2-[(3-{[2-(dimethylamino)ethyl]oxy}phenyl)amino]-4-pyrimidinyl}imidazo[1,2-a]pyridin-2-yl)benzamide] | < 250 | 100 to 500
COc1cc(N2CCC(N3CCC[C@H](O)C3)CC2)ccc1Nc1nccc(-c2c(-c3ccc(OC)c(C(=O)Nc4c(F)cccc4F)c3)nc3ccccn23)n1 [Example 84, N-(2,6-difluorophenyl)-5-[3-(2-{[4-[(3S)-3-hydroxy-1,4′-bipiperidin-1′-yl]-2-(methyloxy)-phenyl]amino}-4-pyrimidinyl)imidazo[1,2-a]pyridin-2-yl]-2-(methyloxy)benzamide] | < 250 | < 100
COc1cc(CCN2CCCCC2)c(F)cc1Nc1nccc(-c2c(-c3ccc(OC)c(C(=O)Nc4c(F)cccc4F)c3)nc3ccccn23)n1 [Example 127, N-(2,6-difluorophenyl)-5-{3-[2-({5-fluoro-2-(methyloxy)-4-[2-(1-piperidinyl)ethyl]phenyl}-amino)-4-pyrimidinyl}imidazo[1,2-a]pyridin-2-yl}-2-(methyloxy)benzamide] | 250 to 1000 | < 100
COc1cc(N2CCC(N3CCOCC3)CC2)ccc1Nc1nccc(-c2c(-c3cccc(C(=O)Nc4c(F)cccc4F)c3)nc3ccccn23)n1 [Example 38, N-(2,6-difluorophenyl)-3-{3-[2-({2-(methyloxy)-4-[4-(4-morpholinyl)-1-piperidinyl]phenyl}amino)-4-pyrimidinyl]imidazo[1,2-a]pyridin-2-yl}benzamide] | 250 to 1000 | < 100
COc1cc(N2CCC(OC)CC2)ccc1Nc1nccc(-c2c(-c3ccc(OC)c(C(=O)Nc4c(F)cccc4F)c3)nc3ccccn23)n1 [Example 126, N-(2,6-difluorophenyl)-2-(methyloxy)-5-{3-[2-({2-(methyloxy)-4-[4-(methyloxy)-1-piperidinyl}phenyl}amino)-4-pyrimidinyl]imidazo[1,2-a]pyridin-2-yl]benzamide] | 250 to 1000 | < 100
COc1ccc(N2CCC(N3CCCCC3)CC2)cc1Nc1nccc(-c2c(-c3ccc(OC)c(C(=O)Nc4c(F)cccc4F)c3)nc3ccccn23)n1 [Example 31, 5-[3-(2-{[5-(1,4′-bipiperidin-1-yl)-2-(methyloxy)phenyl]amino}-4-pyrimidinyl)imidazo[1,2-a]pyridin-2-yl]-N-(2,6-difluorophenyl)-2-(methyloxy)benzamide] | 250 to 1000 | < 100
COc1cc(N2CCOCC2)ccc1Nc1nccc(-c2c(-c3cccc(C(=O)Nc4c(F)cccc4F)c3)nc3ccccn23)n1 [Example 71, N-(2,6-difluorophenyl)-3-[3-(2-{[2-(methyloxy)-4-(4-morpholinyl)phenyl]amino}-4-pyrimidinyl)imidazo[1,2-a]pyridin-2-yl]benzamide] | 250 to 1000 | < 100
COc1cc(-c2nnc(CN3CCCC3)o2)ccc1Nc1nccc(-c2c(-c3ccc(OC)c(C(=O)Nc4c(F)cccc4F)c3)nc3ccccn23)n1 [Example 28, N-(2,6-difluorophenyl)-2-(methyloxy)-5-{3-[2-({2-(methyloxy)-4-[5-(1-pyrrolidinylmethyl)-1,3,4-oxadiazol-2-yl]phenyl]amino)-4-pyrimidinyl}imidazo[1,2-a]pyridin-2-yl}benzamide] |  | 100 to 500
CN(C)CCOc1cccc(Nc2nccc(-c3c(-c4cccc(C(=O)Nc5ccc(F)cc5F)c4)nc4ccccn34)n2)c1 [Example 13] |  | < 100
CN(C)CCOc1cccc(Nc2nccc(-c3c(-c4cccc(C(=O)Nc5cc(Cl)ccc5F)c4)nc4ccccn34)n2)c1 [Example 9, N-(5-chloro-2-fluorophenyl)-3-(3-{2-[(3-{[2-(dimethylamino)ethyl]oxy}phenyl)amino]-4-pyrimidinyl}imidazo[1,2-a]pyridin-2-yl)benzamide] |  | 100 to 500
COc1cc(N2CCC(N3CCN(S(C)(=O)=O)CC3)CC2)ccc1Nc1nccc(-c2c(-c3ccc(OC)c(C(=O)Nc4c(F)cccc4F)c3)nc3ccccn23)n1 [Example 69] | 250 to 1000 | 
